# No end group written: not given here. *: point of attachment. Palmitoyl = CCCCCCCCCCCCCCCC(=O)*
# How the values were obtained:
# dendritic cells (DCs) [1] = test: CCL22 production from DCs treated with VIP formulations; format: cell-based; conditions: 24 hours; for DC CCL22 production: immature and mature DCs; for CCL22 production from immature DCs: vs no stimulus
# Method: Thus, CCL22 production from DCs treated with different VIP formulations was evaluated.
# macrophages (MØs) = test: TNF-α secretion from LPS-activated MØs incubated with VIP materials; format: cell-based
# Method: (§1) The anti-inflammatory effect of VIPAMs were explored by incubating MOs and DCs with LPS and different VIP materials at low (i.e. 1 μM) or high (20 μM) concentrations (FIG. 41A, FIG. 41B, and FIG. 41C).
# dendritic cells (DCs) [2] = test: TNF-α secretion from LPS-activated DCs incubated with VIP materials; format: cell-based; conditions: low (1 μM) or high (20 μM) concentration
# Method: as §1
# dendritic cells (DCs) [3] = test: CD86 expression on DCs incubated with VIP materials; format: cell-based; conditions: for CD86 expression on activated DCs: with LPS
# Method: as §1
# [4] = cited from earlier work
# [5] = Zeta potential measurement of the zwitterion-like peptide region alone; format: physicochemical
# From the text: The alternating charge groups of (KE)4 at neutral pH can create local dipole moments that allow for intermicellar complexation yielding the observed twining behavior. At low pH and high pH utilized, not all of the glutamic acids or lysines will be protonated or deprotonated, respectively, but the local change in (KE)4 block charge is significant enough to repulse one another yielding individual thread-like micelles.
# [6] = Micelle morphology and diameter by negative stain TEM; format: physicochemical; conditions: concentrations above CMC
# Method: Micelle morphology was assessed by negative stain transmission electron microscopy (TEM). TEM grids (200 mesh) with standard thickness carbon support films were purchased from Electron Microscopy Sciences and glow discharged for 45 seconds (Pelco Easiglow) to impart a negative charge. Product solutions (5 μL) were added to freshly glow-discharged films and incubated for 5 minutes. Filter paper was used to wick away excess solution and 5 μL of nanotungsten (Nanoprobes, Inc.) was immediately added. After 5 minute of incubation, grids were blotted dried and stored for later use. Samples were imaged with a JEOL JEM-1400 TEM at 120 kV for shape assessment. Tilt series images were collected at 200 kV, spot size 4, gun lens of 5, and extraction voltage of 3950 sA at a nominal 23,000× magnification with an underfocus of 1 sm. Tilt increments were collected every 2 degrees with a tilt range of ±70°, starting at 0°, with the negative half of the tilt series collected using FEI Xplore3D. Frames were aligned using IMOD with the patch-tracking algorithm using the entire imaged area for frame alignment and reconstructed with the weighted back projection algorithm. Micellar diameters were measured using ImageJ software (NIH). Three different spots from each micelle were measured and the results from three separate micelles were averaged for each group.
# [7] = Critical micelle concentration (CMC) by DPH fluorescence; format: physicochemical; conditions: VIP amphiphiles
# Method: Critical micelle concentration (CMC) was measured indirectly by 1,6-diphenyl-1,3,5-hexatriene (DPH) fluorescence. […] Peptide amphiphile solutions were serially diluted in 1 μM 1,6-diphenyl-1,3,5 hexatriene (DPH) containing 0.01% THF and allowed to equilibrate for 1 hour prior to fluorescence measurement (ex. 350 nm, em. 428 nm) by a BioTek Cytation 5 fluorospectrophotometer. The resulting data was fit with two trend lines and the fluorescence inflection point was interpreted as the CMC (Table 4 and FIG. 23, FIG. 24, FIG. 25, FIG. 26, FIG. 27, FIG. 28, FIG. 29, and FIG. 30).
# VIPA design and physical characterization: Based on our recent research, two VIPA chemistries were produced. The first VIPA was synthesized by directly conjugating palmitic acid (Palm) to the N-terminus of VIP to form Palm-VIP, […] (SEQ ID NO: 3), (pVIPA—FIG. 39A). The second VIPA included a zwitterion-like peptide region between Palm and VIP yielding PalmK-(EK)4-VIP, […] (SEQ ID NO: 4) (pzVIPA—FIG. 39B). […] While the addition of the hydrophilic block may have been expected to maintain or decrease the CMC, peptide folding to orient the most hydrophilic section externally can induce bending in the PA that may prevent straightforward micellar packing. […] This increased length is likely due to the intermicellar electrostatic complexation we have previously described for similar triblock PAs. […]
# [8] = Micelle/peptide secondary structure by circular dichroism; format: physicochemical; conditions: CD analysis; compared with VIP and pVIPA
# Method: Micelle secondary structure was investigated by circular dichroism using a circular dichroism spectrometer model 62DS (Aviv Biomedical, Inc., Lakewood, NJ). Micelle solutions (40 μM) were loaded into a 1 mm cuvette and measured a total of 10 times from 190 to 250 nm with an interval of 1 nm. The averaged data was curve fit using a linear combination of polylysine basis structures to calculate approximate α-helix, β-sheet, and random coil content.
# dendritic cells (DCs) [9] = conditions: after 48 hours of incubation; previous results; cited from earlier work
# [10] = low (1 μM) or high (20 μM) concentration
Compound,DC CCL22 production (dendritic cells (DCs) [1]),TNF-α secretion from activated MØs (macrophages (MØs); [10]),TNF-α secretion from activated DCs (dendritic cells (DCs) [2]),CD86 expression on activated DCs (dendritic cells (DCs) [3]; [10]),CCL22 production from immature DCs (dendritic cells (DCs) [1]; high concentration),CD86 expression on activated DCs (dendritic cells (DCs) [3]; high concentration (20 μM)),micelle shape [6],further results
"CCCCCCCCCCCCCCCC(=O)O [Palm, palmitic acid, reference compound]",no impact on CCL22 induction,no TNF-α nor CD86 regulation,no TNF-α nor CD86 regulation,no TNF-α nor CD86 regulation,,,,
N[C@@H](CCC(=O)O)C(=O)O [glutamic acid],,,,,,,,pKa [4]: 4.07
-Lys-Glu-Lys-Glu-Lys-Glu-Lys-Glu- (KEKEKEKE) [(KE)4],,,,,,,,Zeta Potential ([5]; pH 2): 31.4 ± 2.9 mV; Zeta Potential ([5]; pH 7): −7.8 ± 1.2 mV; Zeta Potential ([5]; pH 11): −18.1 ± 4.7 mV
Palm-VIP [pVIPA],,unable to enhance the TNF-α suppressive effects of VIP,completely nullified VIP effects,,induced greater CCL22 production,enhanced,cylindrical micelles,"CCL22 production from mature DCs (dendritic cells (DCs) [1]; high concentration, vs LPS-stimulated mature DC control): enhanced CCL22 production; CD86 expression in immature DCs (dendritic cells (DCs) [3]; high concentration, no LPS): significantly increased"
PalmK-(EK)4-VIP (K(Palmitoyl)EKEKEKEKHSDAVFTDNYTRLRKQMAVKKYLNSILN-NH2; not fully specified) [pzVIPA],,,maintained VIP-based TNF-α secretion,,induced greater CCL22 production,significantly limited,braided micelles,CMC [7]: 9.3 µM; α-helical conformation [8]: more abundant; TNF-α secretion from activated MØs (macrophages (MØs); effect only at high concentration (20 μM)): nearly completely abrogated; CD86 cell surface expression on immature DCs (dendritic cells (DCs) [3]; no LPS): no increase
"Vasoactive intestinal peptide (HSDAVFTDNYTRLRKQMAVKKYLNSILN) [VIP, reference compound]",unable to induce,modestly reduce,modestly reduce,modestly reduce,,,,CCL22 production (dendritic cells (DCs) [9]): induces significant CCL22 production
